Reference: BindingDB's records for PubMed 9336327 (Preclinical R & D, Astra Arcus, 1997)

Columns and labels:
[1] = biological target: 5-hydroxytryptamine receptor 7 (Rattus norvegicus, UniProt P32305)
[2] = biological target: 5-hydroxytryptamine receptor 6 (Rattus norvegicus, UniProt P31388)
Glutamate receptor 3 = Glutamate receptor 3 (Rattus norvegicus, UniProt P19492)
[3] = biological target: T1, Alpha-1A adrenergic receptor (Rattus norvegicus, UniProt P43140)
T1 sequence (P43140 whole entry): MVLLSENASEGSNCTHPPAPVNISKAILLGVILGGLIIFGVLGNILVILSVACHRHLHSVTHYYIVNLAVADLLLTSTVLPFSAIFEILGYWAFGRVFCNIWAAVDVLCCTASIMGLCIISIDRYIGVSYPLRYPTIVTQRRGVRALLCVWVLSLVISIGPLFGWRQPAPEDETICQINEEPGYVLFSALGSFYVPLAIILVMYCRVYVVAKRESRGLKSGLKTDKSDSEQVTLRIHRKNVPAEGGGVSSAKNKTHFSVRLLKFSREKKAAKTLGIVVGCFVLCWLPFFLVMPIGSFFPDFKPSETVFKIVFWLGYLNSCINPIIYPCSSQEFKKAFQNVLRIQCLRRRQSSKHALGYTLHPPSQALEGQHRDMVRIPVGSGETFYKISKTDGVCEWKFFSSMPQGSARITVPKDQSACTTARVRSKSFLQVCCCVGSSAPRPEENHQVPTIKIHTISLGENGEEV

[4] = biological target: 5-hydroxytryptamine receptor 1B (Rattus norvegicus, UniProt P28564)
D(3) dopamine receptor = D(3) dopamine receptor (Homo sapiens, UniProt P35462)
D(3) dopamine receptor, sequence (P35462 as listed by the source): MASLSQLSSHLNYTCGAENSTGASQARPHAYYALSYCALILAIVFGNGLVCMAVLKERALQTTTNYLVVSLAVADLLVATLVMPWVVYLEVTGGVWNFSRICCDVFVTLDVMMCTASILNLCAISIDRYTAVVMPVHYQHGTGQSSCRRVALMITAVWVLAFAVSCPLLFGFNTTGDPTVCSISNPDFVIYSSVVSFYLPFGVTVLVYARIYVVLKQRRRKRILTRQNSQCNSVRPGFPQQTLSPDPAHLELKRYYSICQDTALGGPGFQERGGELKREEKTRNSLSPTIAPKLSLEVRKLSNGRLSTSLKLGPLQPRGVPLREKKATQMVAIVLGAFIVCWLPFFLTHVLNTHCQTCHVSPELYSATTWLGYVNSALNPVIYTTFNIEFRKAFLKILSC

[5] = biological target: T2, Alpha-2C adrenergic receptor (Rattus norvegicus, UniProt P22086)
T2 sequence (P22086 whole entry): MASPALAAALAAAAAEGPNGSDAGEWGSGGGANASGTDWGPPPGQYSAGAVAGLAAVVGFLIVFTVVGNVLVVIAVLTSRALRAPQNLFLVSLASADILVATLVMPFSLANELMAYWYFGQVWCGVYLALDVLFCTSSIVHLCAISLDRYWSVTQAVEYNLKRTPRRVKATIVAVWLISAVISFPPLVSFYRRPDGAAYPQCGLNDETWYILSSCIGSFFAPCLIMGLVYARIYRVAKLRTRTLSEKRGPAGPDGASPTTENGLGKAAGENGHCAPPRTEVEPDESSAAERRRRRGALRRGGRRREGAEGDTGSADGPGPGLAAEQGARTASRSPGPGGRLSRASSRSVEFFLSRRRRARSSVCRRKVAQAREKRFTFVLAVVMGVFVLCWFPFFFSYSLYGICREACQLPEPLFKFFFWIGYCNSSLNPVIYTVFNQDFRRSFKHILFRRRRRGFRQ

[6] = biological target: T3, 5-hydroxytryptamine receptor 1A (Rattus norvegicus, UniProt P19327)
T3 sequence (P19327 whole entry): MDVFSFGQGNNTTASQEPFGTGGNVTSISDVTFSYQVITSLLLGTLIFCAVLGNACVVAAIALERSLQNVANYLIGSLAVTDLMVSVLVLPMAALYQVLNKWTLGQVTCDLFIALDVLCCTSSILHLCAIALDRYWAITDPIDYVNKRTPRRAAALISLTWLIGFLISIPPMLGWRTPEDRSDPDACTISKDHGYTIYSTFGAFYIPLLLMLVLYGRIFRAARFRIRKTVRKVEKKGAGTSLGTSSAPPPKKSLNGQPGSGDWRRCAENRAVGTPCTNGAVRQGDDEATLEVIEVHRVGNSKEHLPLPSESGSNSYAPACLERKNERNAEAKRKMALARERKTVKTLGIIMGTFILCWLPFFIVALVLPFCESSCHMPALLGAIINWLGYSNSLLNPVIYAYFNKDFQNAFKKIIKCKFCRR

D(2) dopamine receptor = D(2) dopamine receptor (Homo sapiens, UniProt P14416)
D(2) dopamine receptor, sequence (P14416 whole entry): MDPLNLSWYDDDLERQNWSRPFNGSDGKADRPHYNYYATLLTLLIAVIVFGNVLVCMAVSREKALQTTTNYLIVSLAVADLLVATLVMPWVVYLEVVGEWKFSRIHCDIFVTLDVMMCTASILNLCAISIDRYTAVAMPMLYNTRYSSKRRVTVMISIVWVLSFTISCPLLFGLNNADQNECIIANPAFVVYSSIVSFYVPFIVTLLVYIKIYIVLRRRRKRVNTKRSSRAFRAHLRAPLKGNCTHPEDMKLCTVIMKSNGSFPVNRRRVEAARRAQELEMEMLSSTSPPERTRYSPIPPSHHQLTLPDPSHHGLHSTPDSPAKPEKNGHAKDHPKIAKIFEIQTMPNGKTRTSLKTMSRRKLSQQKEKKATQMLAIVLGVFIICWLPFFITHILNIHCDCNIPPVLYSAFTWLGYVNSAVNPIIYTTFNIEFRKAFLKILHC

Galanin peptides = biological target: T4, Galanin peptides (Rattus norvegicus, UniProt P10683)
T4 sequence (P10683 whole entry): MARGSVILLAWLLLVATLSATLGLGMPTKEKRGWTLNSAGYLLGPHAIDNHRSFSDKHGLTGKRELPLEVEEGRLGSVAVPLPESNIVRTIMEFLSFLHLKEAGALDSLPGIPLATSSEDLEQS

Histamine H1 receptor = Histamine H1 receptor (Rattus norvegicus, UniProt P31390)
Histamine H1 receptor, sequence (P31390 whole entry): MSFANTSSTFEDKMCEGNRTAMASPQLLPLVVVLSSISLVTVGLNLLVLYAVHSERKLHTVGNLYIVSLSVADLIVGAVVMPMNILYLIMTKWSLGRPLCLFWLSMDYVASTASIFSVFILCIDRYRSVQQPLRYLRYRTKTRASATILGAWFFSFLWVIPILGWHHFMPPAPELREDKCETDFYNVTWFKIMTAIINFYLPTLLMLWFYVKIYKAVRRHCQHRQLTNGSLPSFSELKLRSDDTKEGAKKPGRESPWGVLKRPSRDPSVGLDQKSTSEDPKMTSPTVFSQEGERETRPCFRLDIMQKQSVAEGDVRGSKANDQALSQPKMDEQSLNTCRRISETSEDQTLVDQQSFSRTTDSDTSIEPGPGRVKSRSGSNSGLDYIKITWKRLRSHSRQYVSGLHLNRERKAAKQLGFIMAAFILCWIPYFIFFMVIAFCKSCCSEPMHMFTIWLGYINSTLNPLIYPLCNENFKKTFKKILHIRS

[7] = biological target: Beta-2 adrenergic receptor (Rattus norvegicus, UniProt P10608)
Beta-2 adrenergic receptor, sequence (P10608 whole entry): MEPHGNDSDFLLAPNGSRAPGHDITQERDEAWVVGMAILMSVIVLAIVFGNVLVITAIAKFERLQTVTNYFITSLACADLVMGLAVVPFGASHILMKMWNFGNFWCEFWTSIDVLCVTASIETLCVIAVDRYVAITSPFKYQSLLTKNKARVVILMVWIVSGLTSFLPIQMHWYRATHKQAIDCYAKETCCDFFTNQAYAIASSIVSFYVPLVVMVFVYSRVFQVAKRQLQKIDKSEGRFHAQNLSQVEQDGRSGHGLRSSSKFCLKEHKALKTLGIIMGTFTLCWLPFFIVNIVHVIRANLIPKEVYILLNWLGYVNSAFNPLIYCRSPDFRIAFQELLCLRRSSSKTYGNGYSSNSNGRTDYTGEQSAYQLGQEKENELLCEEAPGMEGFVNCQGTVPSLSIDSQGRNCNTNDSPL

[8] = biological target: Nicotinic acetylcholine receptor (Rattus leucopus, UniProt Q62594)
Nicotinic acetylcholine receptor, sequence (Q62594 whole entry): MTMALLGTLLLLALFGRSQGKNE

[9] = biological target: T5, Muscarinic acetylcholine receptor M2 (Rattus norvegicus, UniProt P10980)
T5 sequence (P10980 whole entry): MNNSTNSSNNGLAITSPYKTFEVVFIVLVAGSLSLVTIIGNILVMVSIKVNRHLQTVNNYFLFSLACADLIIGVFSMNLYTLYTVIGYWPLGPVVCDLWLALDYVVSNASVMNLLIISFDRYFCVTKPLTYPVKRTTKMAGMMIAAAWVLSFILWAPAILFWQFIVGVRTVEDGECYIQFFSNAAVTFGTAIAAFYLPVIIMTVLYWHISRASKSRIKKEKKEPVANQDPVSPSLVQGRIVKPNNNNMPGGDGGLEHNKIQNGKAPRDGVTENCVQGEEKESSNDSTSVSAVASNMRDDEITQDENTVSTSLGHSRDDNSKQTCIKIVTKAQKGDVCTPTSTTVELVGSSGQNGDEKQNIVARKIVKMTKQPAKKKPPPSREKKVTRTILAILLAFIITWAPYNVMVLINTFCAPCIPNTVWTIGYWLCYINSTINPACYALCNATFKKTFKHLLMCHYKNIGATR

[10] = biological target: Gamma-aminobutyric acid receptor subunit alpha-1 (Rattus norvegicus, UniProt P62813)
Gamma-aminobutyric acid receptor subunit alpha-1, sequence (P62813 whole entry): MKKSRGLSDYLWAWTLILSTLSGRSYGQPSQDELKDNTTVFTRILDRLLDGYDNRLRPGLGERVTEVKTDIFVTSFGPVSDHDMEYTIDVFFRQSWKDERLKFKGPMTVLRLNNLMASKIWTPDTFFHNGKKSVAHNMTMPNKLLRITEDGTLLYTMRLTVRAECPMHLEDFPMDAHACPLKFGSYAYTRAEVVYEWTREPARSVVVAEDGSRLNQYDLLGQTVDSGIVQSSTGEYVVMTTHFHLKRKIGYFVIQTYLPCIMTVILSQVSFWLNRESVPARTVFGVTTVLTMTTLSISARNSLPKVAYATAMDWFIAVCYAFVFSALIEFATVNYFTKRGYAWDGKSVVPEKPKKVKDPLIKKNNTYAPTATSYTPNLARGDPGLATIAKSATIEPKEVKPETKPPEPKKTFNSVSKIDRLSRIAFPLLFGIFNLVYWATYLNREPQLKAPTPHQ

D(1A) dopamine receptor = D(1A) dopamine receptor (Rattus norvegicus, UniProt P18901)
D(1A) dopamine receptor, sequence (P18901 whole entry): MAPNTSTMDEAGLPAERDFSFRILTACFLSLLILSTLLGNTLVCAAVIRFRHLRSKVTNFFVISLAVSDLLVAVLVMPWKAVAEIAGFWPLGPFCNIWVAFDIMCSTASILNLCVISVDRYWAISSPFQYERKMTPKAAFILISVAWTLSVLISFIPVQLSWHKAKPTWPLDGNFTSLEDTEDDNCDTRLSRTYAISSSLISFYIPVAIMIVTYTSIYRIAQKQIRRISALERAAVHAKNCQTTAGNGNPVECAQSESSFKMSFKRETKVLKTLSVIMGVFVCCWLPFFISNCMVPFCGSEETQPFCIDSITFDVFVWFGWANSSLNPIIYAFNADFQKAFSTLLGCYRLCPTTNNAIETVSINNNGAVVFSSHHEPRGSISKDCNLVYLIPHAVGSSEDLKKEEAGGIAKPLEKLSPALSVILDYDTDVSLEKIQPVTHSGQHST

Histamine H2 receptor = Histamine H2 receptor (Cavia porcellus, UniProt P47747)
Histamine H2 receptor, sequence (P47747 whole entry): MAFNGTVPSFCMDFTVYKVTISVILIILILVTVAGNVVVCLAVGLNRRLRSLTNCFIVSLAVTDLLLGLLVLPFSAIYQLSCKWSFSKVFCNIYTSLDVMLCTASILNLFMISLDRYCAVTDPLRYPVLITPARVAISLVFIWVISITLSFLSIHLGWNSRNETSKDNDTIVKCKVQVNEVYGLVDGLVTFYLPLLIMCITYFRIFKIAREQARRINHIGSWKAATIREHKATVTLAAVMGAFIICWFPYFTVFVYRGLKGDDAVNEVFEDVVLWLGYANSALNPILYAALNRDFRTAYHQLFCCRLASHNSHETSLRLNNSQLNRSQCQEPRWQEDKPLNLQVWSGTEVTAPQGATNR

[11] = biological target: Glutamate receptor ionotropic, NMDA 1 (Rattus norvegicus, UniProt P35439)
[12] = biological target: 5-hydroxytryptamine receptor 2A (Rattus norvegicus, UniProt P14842)
5-hydroxytryptamine receptor 2A, sequence (P14842 whole entry): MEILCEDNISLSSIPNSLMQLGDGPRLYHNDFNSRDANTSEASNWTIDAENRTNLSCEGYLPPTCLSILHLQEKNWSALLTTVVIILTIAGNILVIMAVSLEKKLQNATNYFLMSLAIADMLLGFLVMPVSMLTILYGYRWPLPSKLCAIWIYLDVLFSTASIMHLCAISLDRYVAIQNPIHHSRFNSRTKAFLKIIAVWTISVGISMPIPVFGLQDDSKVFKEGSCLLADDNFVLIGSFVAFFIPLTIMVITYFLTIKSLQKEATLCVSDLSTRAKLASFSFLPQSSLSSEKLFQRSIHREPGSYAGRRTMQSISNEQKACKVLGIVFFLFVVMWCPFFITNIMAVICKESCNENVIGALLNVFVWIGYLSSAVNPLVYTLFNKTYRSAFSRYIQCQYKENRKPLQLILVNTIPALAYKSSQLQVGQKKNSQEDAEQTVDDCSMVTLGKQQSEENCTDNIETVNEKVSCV

Glutamate receptor 3, sequence (P19492 whole entry): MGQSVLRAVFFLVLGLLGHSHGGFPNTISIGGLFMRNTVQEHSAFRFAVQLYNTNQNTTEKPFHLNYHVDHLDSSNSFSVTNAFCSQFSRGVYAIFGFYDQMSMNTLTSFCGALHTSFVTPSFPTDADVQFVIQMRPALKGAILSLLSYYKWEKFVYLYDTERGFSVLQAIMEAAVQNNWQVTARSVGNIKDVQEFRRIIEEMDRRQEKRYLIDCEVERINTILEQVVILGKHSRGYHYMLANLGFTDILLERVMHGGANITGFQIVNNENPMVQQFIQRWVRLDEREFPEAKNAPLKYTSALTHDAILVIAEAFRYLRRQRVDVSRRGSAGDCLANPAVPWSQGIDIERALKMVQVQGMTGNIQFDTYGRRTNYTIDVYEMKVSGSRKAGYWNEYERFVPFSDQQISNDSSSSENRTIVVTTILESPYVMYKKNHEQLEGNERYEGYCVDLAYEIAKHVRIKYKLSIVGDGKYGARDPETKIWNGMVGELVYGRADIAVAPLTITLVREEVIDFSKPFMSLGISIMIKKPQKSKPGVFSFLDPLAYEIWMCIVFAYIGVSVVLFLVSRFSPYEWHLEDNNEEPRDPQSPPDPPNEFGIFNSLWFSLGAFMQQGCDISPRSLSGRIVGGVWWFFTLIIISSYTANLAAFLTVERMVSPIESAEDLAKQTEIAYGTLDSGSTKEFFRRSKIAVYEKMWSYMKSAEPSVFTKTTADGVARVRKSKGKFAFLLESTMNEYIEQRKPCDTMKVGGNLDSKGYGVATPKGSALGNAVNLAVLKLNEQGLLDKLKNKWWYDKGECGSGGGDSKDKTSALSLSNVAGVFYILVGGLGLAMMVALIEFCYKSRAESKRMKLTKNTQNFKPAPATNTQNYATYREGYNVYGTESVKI
5-hydroxytryptamine receptor 6, sequence (P31388 whole entry): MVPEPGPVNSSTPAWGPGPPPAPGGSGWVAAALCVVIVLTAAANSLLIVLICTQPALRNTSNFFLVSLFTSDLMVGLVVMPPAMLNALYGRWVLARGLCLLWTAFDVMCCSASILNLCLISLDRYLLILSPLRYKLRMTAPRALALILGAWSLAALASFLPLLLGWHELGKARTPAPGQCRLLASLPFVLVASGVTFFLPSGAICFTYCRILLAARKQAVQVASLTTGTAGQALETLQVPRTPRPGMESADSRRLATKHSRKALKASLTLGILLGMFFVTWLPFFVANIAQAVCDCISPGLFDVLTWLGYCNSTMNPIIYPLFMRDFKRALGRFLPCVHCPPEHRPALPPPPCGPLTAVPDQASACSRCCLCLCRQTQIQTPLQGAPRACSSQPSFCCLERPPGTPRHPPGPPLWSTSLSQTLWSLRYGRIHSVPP

| Compound | Ki [1] [nM] | Ki [2] [nM] | Ki (Glutamate receptor 3) [nM] | Ki [3] [nM] | Ki [4] [nM] | Ki (D(3) dopamine receptor) [nM] | Ki [5] [nM] | Ki [6] [nM] | Ki (D(2) dopamine receptor) [nM] | Ki (Galanin peptides) [nM] | Ki (Histamine H1 receptor) [nM] | Ki [7] [nM] | Ki [8] [nM] | Ki [9] [nM] | Ki [10] [nM] | Ki (D(1A) dopamine receptor) [nM] | Ki (Histamine H2 receptor) [nM] | Ki [11] [nM] | Ki [12] [nM] |
| --- | --- | --- | --- | --- | --- | --- | --- | --- | --- | --- | --- | --- | --- | --- | --- | --- | --- | --- | --- |
| NC(=O)c1ccc(F)c2c1CC(N(C1CCC1)C1CCC1)CO2 (stereo not drawn) [CAS_3055171] | 1900 | > 10000 | > 10000 | 260 | 1000 | 1000 | 1000 | 0.59 | 1000 | 2600 | > 10000 | 340 | > 10000 | 1000 | > 10000 | 1000 | > 10000 | > 10000 | > 10000 |
| COc1ccccc1N1CCN(CCN(C(=O)C2CCCCC2)c2ccccn2)CC1 |  |  | > 10000 |  |  | 67 | 1000 |  | 79 | 2600 | > 10000 | 1000 | > 10000 | 1000 | > 10000 | 1000 | > 10000 | > 10000 | 1100 |
